The record followed here is patent publication US7880007B2, “Bicyclic substituted phenyl piperidine modulators of muscarinic receptors” (Vertex Pharmaceuticals Incorporated, priority 2004, dated 2011).

A value given as a limit tells only on which side of the number the result lay.

Type in all cases: cell-based
One assay addresses T1, M4 muscarinic receptor (Homo sapiens, UniProt P08173).
T1 construct: expressed in transfected cells; host or cells: CHO (M4-CHO)
T1 sequence (P08173 1-479): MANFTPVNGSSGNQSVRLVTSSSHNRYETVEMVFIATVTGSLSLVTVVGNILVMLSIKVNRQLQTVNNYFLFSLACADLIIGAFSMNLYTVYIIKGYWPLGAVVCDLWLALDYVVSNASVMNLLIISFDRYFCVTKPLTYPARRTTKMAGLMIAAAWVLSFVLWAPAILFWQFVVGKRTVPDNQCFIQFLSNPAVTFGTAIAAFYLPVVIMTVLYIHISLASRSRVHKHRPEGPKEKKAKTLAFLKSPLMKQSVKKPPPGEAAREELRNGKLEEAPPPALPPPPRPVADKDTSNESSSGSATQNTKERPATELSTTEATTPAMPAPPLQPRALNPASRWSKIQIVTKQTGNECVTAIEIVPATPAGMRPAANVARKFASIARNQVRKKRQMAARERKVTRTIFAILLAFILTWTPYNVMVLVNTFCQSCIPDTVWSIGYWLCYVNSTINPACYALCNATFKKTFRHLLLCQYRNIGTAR
Briefly: Functional mobilization of intracellular calcium (FLIPR), M4-CHO cells. Conditions: for M4 Activity: M4-CHO cells, calcium mobilization (FLIPR). Put shortly: (§1)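 FLIPR fluorescence (ex 488, em 540 nm) recorded 60 sec after compound addition to dye-loaded CHO cells. Agonist mode: compound alone. Antagonist mode: 15 min compound pre-incubation, then carbachol at EC80, or co-application. Efficacy expressed as % of maximal carbachol response.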
Background: Calcium assays in cells follow changes in intracellular calcium, usually with a dye or a luminescent sensor.

Another assay has as its target T2, M1 muscarinic receptor (Homo sapiens, UniProt P11229).
T2 construct: expressed in transfected cells; host or cells: CHO (M1-CHO)
T2 sequence (P11229 1-460): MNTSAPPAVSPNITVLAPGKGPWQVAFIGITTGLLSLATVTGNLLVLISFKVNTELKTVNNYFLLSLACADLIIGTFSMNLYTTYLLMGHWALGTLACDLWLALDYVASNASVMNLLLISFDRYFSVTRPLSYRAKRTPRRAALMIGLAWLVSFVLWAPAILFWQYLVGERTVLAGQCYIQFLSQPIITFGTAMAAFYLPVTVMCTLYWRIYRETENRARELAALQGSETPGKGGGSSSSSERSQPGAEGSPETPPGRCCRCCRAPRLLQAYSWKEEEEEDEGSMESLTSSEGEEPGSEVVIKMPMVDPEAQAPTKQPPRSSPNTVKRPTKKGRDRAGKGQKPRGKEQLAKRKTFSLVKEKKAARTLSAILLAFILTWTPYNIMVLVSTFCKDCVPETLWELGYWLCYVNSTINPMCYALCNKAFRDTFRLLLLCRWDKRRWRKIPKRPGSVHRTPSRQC
Briefly: Functional mobilization of intracellular calcium (FLIPR), M1-CHO cells. As to conditions: for M1 Activity: M1-CHO cells, calcium mobilization (FLIPR). In short, it runs like this:
as §1

In the next assay the target is T3, M2 muscarinic receptor (Homo sapiens, UniProt P08172).
T3 construct: expressed in transfected cells; host or cells: CHO (M2-CHO)
T3 sequence (P08172 1-466): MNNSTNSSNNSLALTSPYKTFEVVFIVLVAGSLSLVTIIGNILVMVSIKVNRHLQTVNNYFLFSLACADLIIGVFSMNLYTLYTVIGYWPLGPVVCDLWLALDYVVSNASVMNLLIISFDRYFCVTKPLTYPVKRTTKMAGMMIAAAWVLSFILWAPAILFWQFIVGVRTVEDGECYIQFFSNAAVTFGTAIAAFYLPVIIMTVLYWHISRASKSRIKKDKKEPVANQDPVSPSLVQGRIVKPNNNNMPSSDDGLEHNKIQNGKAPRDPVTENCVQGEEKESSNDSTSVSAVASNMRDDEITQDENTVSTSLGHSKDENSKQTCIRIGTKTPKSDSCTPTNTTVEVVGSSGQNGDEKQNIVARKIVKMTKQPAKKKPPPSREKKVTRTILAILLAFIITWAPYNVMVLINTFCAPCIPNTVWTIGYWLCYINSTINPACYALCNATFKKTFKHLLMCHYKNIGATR
Briefly: Functional mobilization of intracellular calcium (FLIPR), M2-CHO cells. As to conditions: for M2 Activity: M2-CHO cells, calcium mobilization (FLIPR). In short, it runs like this:
as §1

The target in a further assay is T4, M3 muscarinic receptor (Homo sapiens, UniProt P20309).
T4 construct: expressed in transfected cells; host or cells: CHO (M3-CHO)
T4 sequence (P20309 whole entry): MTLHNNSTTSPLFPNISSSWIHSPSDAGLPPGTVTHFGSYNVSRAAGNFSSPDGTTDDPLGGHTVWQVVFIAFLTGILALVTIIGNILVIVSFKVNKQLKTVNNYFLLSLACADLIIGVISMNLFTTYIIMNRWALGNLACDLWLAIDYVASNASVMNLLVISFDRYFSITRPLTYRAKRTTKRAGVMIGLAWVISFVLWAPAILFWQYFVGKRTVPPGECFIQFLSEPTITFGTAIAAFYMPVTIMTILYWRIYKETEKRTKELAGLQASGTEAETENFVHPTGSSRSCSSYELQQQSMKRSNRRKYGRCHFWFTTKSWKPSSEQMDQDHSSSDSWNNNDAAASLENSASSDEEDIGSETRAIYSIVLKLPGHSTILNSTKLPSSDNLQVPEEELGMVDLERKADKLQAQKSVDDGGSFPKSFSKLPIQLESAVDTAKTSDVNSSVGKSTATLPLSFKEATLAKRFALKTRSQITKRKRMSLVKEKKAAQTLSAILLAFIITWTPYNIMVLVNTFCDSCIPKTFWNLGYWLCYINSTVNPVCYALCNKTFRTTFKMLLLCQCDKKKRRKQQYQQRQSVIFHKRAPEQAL
Briefly: Functional mobilization of intracellular calcium (FLIPR), M3-CHO cells. As to conditions: for M3 Activity: M3-CHO cells, calcium mobilization (FLIPR). In short, it runs like this: as §1

Setting [1] is: 100% efficacy = maximum response obtained with the Carbachol control.
The mark [2] stands for this setting: 100% efficacy is the maximum response obtained with the Carbachol control.

A word on the Emax: it is the greatest response seen or fitted, relative to the assay's reference. For `COc1ccc(-c2ccccc2C)cc1C1CCN([C@@H]2C[C@H]3CC[C@H]2C3)CC1` [Compound 67], the Emax was 25 to 100% at M4 muscarinic receptor (setting [1]), less than 25% on M1 muscarinic receptor (setting [1]), less than 25% on M2 muscarinic receptor (setting [1]) and less than 25% on M3 muscarinic receptor (setting [1]). Also, the “M4 Activity” value on M4 muscarinic receptor is recorded as “+ (activity was measured to be greater than 5.0 μM)”. In addition, the “M1 Activity” value on M1 muscarinic receptor is recorded as “+ (activity was measured to be greater than 5.0 μM)”. The “M2 Activity” value at M2 muscarinic receptor is recorded as “+ (activity was measured to be greater than 5.0 μM)”. Moreover, on M3 muscarinic receptor, the “M3 Activity” value is recorded as “+ (activity was measured to be greater than 5.0 μM)”.

In the case of `COc1ccc(-c2ccc(C(=O)N(C)C)cc2)cc1C1CCN([C@H]2C[C@H]3CC[C@H]2C3)CC1` [Compound 360], the maximum response (Emax) on M4 muscarinic receptor (setting [1]) was 25 to 100%; at M1 muscarinic receptor (setting [1]), less than 25%; at M2 muscarinic receptor (setting [1]) it was less than 25%; at M3 muscarinic receptor (setting [1]), less than 25%. The “M4 Activity” value on M4 muscarinic receptor was “++ (activity was measured to be from 1.0 μM to 5.0 μM)”. Further, on M1 muscarinic receptor, the “M1 Activity” value is “+ (activity was measured to be greater than 5.0 μM)”. The “M2 Activity” value on M2 muscarinic receptor was “+ (activity was measured to be greater than 5.0 μM)”. The “M3 Activity” value on M3 muscarinic receptor is listed as “+ (activity was measured to be greater than 5.0 μM)”.

Consider `COc1ccc(F)cc1C1CCN(C2CC3CCC(C3)C2)CC1` (stereo not shown) [Compound 207], for which the Emax at M4 muscarinic receptor (setting [1]) was 25 to 100%; at M1 muscarinic receptor (setting [1]), 25 to 100%; at M2 muscarinic receptor (setting [1]), less than 25%; on M3 muscarinic receptor (setting [1]), less than 25%. At M4 muscarinic receptor, the “M4 Activity” value is recorded as “+++ (activity was measured to be less than 1.0 μM)”. In addition, the “M1 Activity” value on M1 muscarinic receptor is recorded as “+++ (activity was measured to be less than 1.0 μM)”. In addition, the “M2 Activity” value on M2 muscarinic receptor is “+ (activity was measured to be greater than 5.0 μM)”. At M3 muscarinic receptor, the “M3 Activity” value is recorded as “+ (activity was measured to be greater than 5.0 μM)”.

With `COc1ccc(Cl)cc1C1CCN(C2(C)CCOCC2)CC1` [Compound 372], the Emax is 25 to 100% on M4 muscarinic receptor (setting [2]), 25 to 100% at M1 muscarinic receptor (setting [2]), 25 to 100% at M2 muscarinic receptor (setting [2]) and less than 25% on M3 muscarinic receptor (setting [2]). Also, the “M4 Activity” value on M4 muscarinic receptor is on record as “+++ (activity was measured to be less than 1.0 μM)”. Besides, on M1 muscarinic receptor, the “M1 Activity” value is “++ (activity was measured to be from 1.0 μM to 5.0 μM)”. Besides, the “M2 Activity” value on M2 muscarinic receptor was “++ (activity was measured to be from 1.0 μM to 5.0 μM)”. Further, the “M3 Activity” value on M3 muscarinic receptor is recorded as “+ (activity was measured to be greater than 5.0 μM)”.

As for `CCOC(=O)N1CCC(CN2CCC(c3cc(-c4ccc(C(=O)NC)c(Cl)c4)ccc3OC)CC2)CC1` [Compound 298], the Emax at M4 muscarinic receptor (setting [1]) is 25 to 100%; at M1 muscarinic receptor (setting [1]) it was 25 to 100%; on M2 muscarinic receptor (setting [1]) it was less than 25%; at M3 muscarinic receptor (setting [1]) it was less than 25%. The “M4 Activity” value at M4 muscarinic receptor is “+++ (activity was measured to be less than 1.0 μM)”. Also, at M1 muscarinic receptor, the “M1 Activity” value was “++ (activity was measured to be from 1.0 μM to 5.0 μM)”. Also, the “M2 Activity” value on M2 muscarinic receptor is “+ (activity was measured to be greater than 5.0 μM)”. Besides, the “M3 Activity” value on M3 muscarinic receptor was “+ (activity was measured to be greater than 5.0 μM)”.

As to `COc1ccc(C)cc1C1CCN([C@H]2CC[C@H]3CC[C@H]2C3)CC1` [Compound 185], the Emax at M4 muscarinic receptor (setting [1]) was 25 to 100%; at M1 muscarinic receptor (setting [1]), 25 to 100%; on M2 muscarinic receptor (setting [1]), 25 to 100%; on M3 muscarinic receptor (setting [1]) it was less than 25%. In addition, the “M4 Activity” value on M4 muscarinic receptor was “+++ (activity was measured to be less than 1.0 μM)”. Besides, the “M1 Activity” value on M1 muscarinic receptor is on record as “++ (activity was measured to be from 1.0 μM to 5.0 μM)”. The “M2 Activity” value on M2 muscarinic receptor is given as “+ (activity was measured to be greater than 5.0 μM)”. At M3 muscarinic receptor, the “M3 Activity” value is “+ (activity was measured to be greater than 5.0 μM)”.

Take `COc1ccc(-c2ccc(C(C)(C)C#N)cc2)cc1C1CCN(C2CCCCC2)CC1` [Compound 105]: the Emax at M4 muscarinic receptor (setting [1]) is 25 to 100%; at M1 muscarinic receptor (setting [1]), 25 to 100%; on M2 muscarinic receptor (setting [1]), 25 to 100%; at M3 muscarinic receptor (setting [1]), less than 25%. Also, at M4 muscarinic receptor, the “M4 Activity” value was “+ (activity was measured to be greater than 5.0 μM)”. Moreover, the “M1 Activity” value at M1 muscarinic receptor is recorded as “++ (activity was measured to be from 1.0 μM to 5.0 μM)”. Moreover, at M2 muscarinic receptor, the “M2 Activity” value is “+ (activity was measured to be greater than 5.0 μM)”. Also, the “M3 Activity” value on M3 muscarinic receptor is “+ (activity was measured to be greater than 5.0 μM)”.

Turning to `COc1ccc(Cl)c(C2CCN(C3C[C@H]4CC[C@H]3C4)CC2)c1` (stereo partly shown) [Compound 174], the Emax at M4 muscarinic receptor (setting [1]), at M1 muscarinic receptor (setting [1]), on M2 muscarinic receptor (setting [1]) and at M3 muscarinic receptor (setting [1]) was less than 25% each time. In addition, the “M4 Activity” value at M4 muscarinic receptor is “+ (activity was measured to be greater than 5.0 μM)”. The “M1 Activity” value at M1 muscarinic receptor is recorded as “+ (activity was measured to be greater than 5.0 μM)”. In addition, the “M2 Activity” value at M2 muscarinic receptor is reported as “+ (activity was measured to be greater than 5.0 μM)”. The “M3 Activity” value at M3 muscarinic receptor is listed as “+ (activity was measured to be greater than 5.0 μM)”.

As for `COc1ccc(Cl)cc1C1CCN(C2(C)CCCCC2)CC1` [Compound 300, 4-(5-chloro-2-methoxyphenyl)-1-(1-methylcyclo-hexyl)piperidine], the maximal effect (Emax) at M4 muscarinic receptor (setting [1]) was 25 to 100%; on M1 muscarinic receptor (setting [1]) it was 25 to 100%; at M2 muscarinic receptor (setting [1]), 25 to 100%; on M3 muscarinic receptor (setting [1]), less than 25%. Moreover, on M4 muscarinic receptor, the “M4 Activity” value was “+++ (activity was measured to be less than 1.0 μM)”. At M1 muscarinic receptor, the “M1 Activity” value was “++ (activity was measured to be from 1.0 μM to 5.0 μM)”. At M2 muscarinic receptor, the “M2 Activity” value was “++ (activity was measured to be from 1.0 μM to 5.0 μM)”. Further, the “M3 Activity” value at M3 muscarinic receptor is on record as “+ (activity was measured to be greater than 5.0 μM)”.

For the molecule `Cc1cccc(C2CCN(C3C[C@H]4CC[C@H]3C4)CC2)c1C` (stereo partly shown) [Compound 225], the Emax at M4 muscarinic receptor (setting [1]) is 25 to 100%; on M1 muscarinic receptor (setting [1]), 25 to 100%; at M2 muscarinic receptor (setting [1]), less than 25%; at M3 muscarinic receptor (setting [1]), less than 25%. Besides, the “M4 Activity” value at M4 muscarinic receptor was “++ (activity was measured to be from 1.0 μM to 5.0 μM)”. The “M1 Activity” value on M1 muscarinic receptor is “+ (activity was measured to be greater than 5.0 μM)”. Further, the “M2 Activity” value at M2 muscarinic receptor was “+ (activity was measured to be greater than 5.0 μM)”. The “M3 Activity” value at M3 muscarinic receptor was “+ (activity was measured to be greater than 5.0 μM)”.

Take `Fc1ccccc1-c1ccccc1C1CCN(C2CC3CC[C@H]2C3)CC1` (stereo in doubt) [Compound 10, 1-((1S,2R,4R)-bicyclo[2.2.1]heptan-2-yl)-4-(2′-fluorobiphenyl-2-yl)piperidine]: the Emax at M4 muscarinic receptor (setting [1]) was 25 to 100%; at M1 muscarinic receptor (setting [1]), less than 25%; at M2 muscarinic receptor (setting [1]), 25 to 100%; at M3 muscarinic receptor (setting [1]), less than 25%. Moreover, at M4 muscarinic receptor, the “M4 Activity” value is given as “++ (activity was measured to be from 1.0 μM to 5.0 μM)”. Besides, the “M1 Activity” value on M1 muscarinic receptor is recorded as “+ (activity was measured to be greater than 5.0 μM)”. The “M2 Activity” value at M2 muscarinic receptor is given as “+ (activity was measured to be greater than 5.0 μM)”. Further, the “M3 Activity” value on M3 muscarinic receptor is “+ (activity was measured to be greater than 5.0 μM)”.
